Measured values: the METLIN SMRT retention time set (Domingo-Almenara et al. 2019)

Assay: gradient 5% acetonitrile 3 min, to 50% in 2 min, to 85% in 15 min, held 3 min, 100 µL/min
Settings: column: Zorbax Extend-C18 2.1 x 50 mm; eluents: water / acetonitrile, 0.1% formic acid
Outline: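 Pure standards were analyzed in mixtures of ~100 molecules using HPLC coupled to a quadrupole time-of-flight mass spectrometer, in both positive and negative ionization mode. Separation used a Zorbax Extend-C18 column (2.1 × 50 mm, 1.8 μm) at 100 μL/min, with water and acetonitrile each containing 0.1% formic acid. Dead and dwell volumes were 40 μL and 900 μL, and data were collected over 3 months. Retention time was read from computationally picked adduct peaks, each inspected manually.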

RP-LC retention time [s] | SMILES
700 | CCc1cccc(C)c1NC(=O)Cn1nc2n(c1=O)CCCCC2
838 | COc1cc(NC(=O)Cn2c(=O)nc(N3CCCC(C)C3)c3ccccc32)cc(OC)c1 (stereo not given)
998 | Cc1nc(-c2cn(C)c3ncccc23)sc1C(=O)NCc1ccccc1C(F)(F)F
577 | CNC(=O)[C@@H]1CN(C(=O)c2cc(C3CC3)[nH]n2)C[C@H]1c1n[nH]c(C)n1
840 | O=C(CSc1nnc(-c2ccccc2)c(-c2ccccc2)n1)Nc1nccs1
602 | CC(C)(C)c1cc(C(N)=O)n[nH]1
957 | O=C(NCc1ccc(F)cc1)c1cc(N2CCCC2)n2nccc2n1
728 | CCNC(=O)NCCC1CCN(S(=O)(=O)c2ccc(F)cc2)CC1
967 | CS(=O)(=O)Nc1ccc2oc3c(OC(F)F)ccc(C(=O)Nc4c(Cl)cncc4Cl)c3c2c1
858 | CC(C)n1ccc(C(=O)Nc2nnc(-c3cc(Cl)sc3Cl)o2)n1
698 | Cc1ccc(-c2cc(C(=O)N3CCC(NC(=O)c4cc(C5CC5)[nH]n4)CC3)[nH]n2)cc1C
785 | Cc1cc(N2CCN(S(=O)(=O)c3cc(F)ccc3C)CC2)nc(N2CCCCC2)n1
636 | Cn1cnnc1SCC(=O)N1CCCc2ccccc21
617 | Cn1c(CCNC(=O)c2ccc(F)c(F)c2)nc2cccnc21
673 | COc1ccccc1NC(=O)N1CCN(c2cc(C)nc(N3CCCC3)n2)CC1
1120 | CC(C)c1noc(C2(NC(=O)CCC3CCCC3)CCCCC2)n1
1070 | CS(=O)(=O)N1CCC(C(=O)NC2CCCCCCC2)Oc2ccc(Cl)cc21 (stereo not given)
967 | O=C(NCc1ccco1)N1CCN(c2nc3ccccc3n(Cc3ccccc3)c2=O)CC1
954 | Cn1cc2c3c(cccc31)CN(C(=O)Cc1ccccc1F)CC2
953 | c1cncc(-c2nc(-c3ccnc(N4CCOCC4)c3)no2)c1
630 | Cc1c(C(=O)NCCCn2ncccc2=O)nnn1-c1nccs1
560 | COc1ccc(C(=O)c2cnc3cc4c(cc3c2N2CCN(C)CC2)OCCO4)cc1
748 | CC(=O)N1CCc2cc(N3CC(C(=O)NCc4ccccc4C(F)(F)F)CC3=O)ccc21 (stereo not given)

RP-LC retention time [s] | SMILES
1020 | CN(Cc1ccccc1)C(=O)Cn1c(=O)c2cnc(-c3ccccc3)nc2n(C)c1=O
1160 | CCCc1ccc(S(=O)(=O)N2CCC3(CC2)C(=O)N(CC)c2ccccc23)cc1
745 | Cc1[nH]c(C)c(S(=O)(=O)N2CCC(C(=O)NC3CCCCCCC3)CC2)c1C(=O)N1CCCC1
941 | COc1ccc(C(=O)CSc2nnnn2-c2cccc(C)c2)cc1
816 | O=C(c1ccsc1)N1CCC2(CC1)NC(=O)N(Cc1cccc(Cl)c1)C2=O
762 | O=C(NC1CCCCC1N1C(=O)CSC1=O)c1cc(-c2ccc(F)cc2)n[nH]1 (stereo not given)
564 | NCCNc1ccc(NCCN)c2c1C(=O)c1ccncc1C2=O
880 | Cc1nc(-c2ccccc2)cc2nn(CC(=O)NC3CCCCC3)c(=O)n12
625 | COCCCNC(=O)C1CCCN(c2ncnc3c2nc2n3CCCCC2)C1 (stereo not given)
1100 | COc1ccc(N2CCN(C(=O)C3CCCN(c4nc5ccccc5nc4OC)C3)CC2)cc1 (stereo not given)
762 | O=C(Cn1nc2c(cc1=O)CCCCC2)Nc1cccc(N2CCCCS2(=O)=O)c1
636 | Cc1cc(NC(=O)CC(=O)Nc2ccc3nc4n(c(=O)c3c2)CCCCC4)no1
764 | Cc1cc(C)n2nc(SCC(=O)Nc3ccc(C)c(C)c3)nc2n1
669 | CN1C(=O)CCC2(CNC(=O)c3n[nH]c(=O)c4ccccc34)CCC=C12 (stereo not given)
817 | Cc1cc(C)cc(NC(=O)N2CCC(n3cnc4ccc(Cl)cc4c3=O)CC2)c1
679 | COc1cc(OC)c(OC)cc1/C=C\c1ccnc2ccccc12
756 | CCCNC(=O)C1CCN(c2nc3ccsc3c(=O)n2Cc2ccccc2)CC1
703 | Cc1cnn(CC(=O)N2CC(F)(F)C[C@H]2c2nc(C3CC3)no2)c1
653 | CC1CCN(Cc2csc(N3CCN(C(=O)COc4ccccc4)CC3)n2)CC1
723 | O=C(Nc1cccc(F)c1)c1c(O)c2cccnc2n(-c2cccc(F)c2)c1=O
556 | COc1ccc2sc(NCc3cccnc3)nc2c1
868 | Cc1ccc(CNS(=O)(=O)c2cc3c4c(c2)CCC(=O)N4CCC3)cc1
871 | CCn1c(=O)c(C(=O)NCc2ccccc2Br)nc2cccnc21

RP-LC retention time [s] | SMILES
822 | N#Cc1cccc(-c2cn3c(n2)N(C(=O)Cc2ccsc2)CCC3)c1
579 | Cn1c(N2CCCC(C(=O)NCC3CCN(Cc4ccccc4F)CC3)C2)cc(=O)n(C)c1=O (stereo not given)
726 | Cc1ccc(-n2ncc3c(=O)n(Cc4nc(-c5ccc(OC(C)C)cc5)no4)cnc32)cc1Cl
605 | CC(=O)Nc1c(C)nn(-c2ccccc2)c1N1CCC(C(=O)NCC2COCCO2)CC1 (stereo not given)
564 | CCn1cc(CC(=O)NC2CCN(Cc3ccccc3)CC2)c2cccnc21
827 | O=C(CN1C(=O)NC2(CCCCC2)C1=O)Nc1cc(F)cc(F)c1
769 | Cc1nc(CCNS(=O)(=O)c2ccc(Cl)cc2)no1
1260 | CCCCCCCNC(=O)C1CCCN(c2ncc(-c3ccc(F)cc3)cn2)C1 (stereo not given)
610 | CCOc1ccc(NC(=O)N2CCN(CCn3c(C(C)C)nc4cccnc43)CC2)cc1
741 | CN(C)c1nc2ncn3c(=O)n(CC(=O)Nc4cc(F)cc(F)c4)nc3c2s1
613 | CN1C(=O)c2cccn2CC1C(=O)NCc1ccco1 (stereo not given)
764 | CN(C)c1ccc(-c2nc3ccc(Cl)cn3c2Nc2ccc3c(c2)OCO3)cc1
741 | COc1ccccc1-c1nnc(C2CCN(C(=O)c3ccccc3)CC2)o1
687 | COc1ccc(NC(=O)CSc2nccc3c2ccn3C)c(OC)c1
890 | Cn1c(=O)n(C)c2cc(N3CCCCC3)c(NC(=O)c3cccs3)cc21
791 | CCOc1ccc(NS(=O)(=O)c2cc(-c3c(CC)noc3NC(C)=O)ccc2OC)cc1
968 | CCc1ccc(NC(=O)N2CCCC(C)(C(=O)NCc3cccc(OC)c3)C2)cc1 (stereo not given)
667 | COCCCNC(=O)c1ccc2c(c1)CCCN2S(C)(=O)=O
708 | CCNC(=O)c1ccc(-n2cccc2)nc1
776 | Cc1cc(F)ccc1NC(=O)c1cc2n(n1)CC(C)(C(=O)NC1CCCCC1)N(C)C2=O (stereo not given)
860 | O=S(=O)(c1cccn2c(SCc3cccc(Cl)c3)nnc12)N1CCCC1
638 | Cc1nn2c(CNC(=O)c3ccccc3C(F)(F)F)c(C)nc2s1
796 | O=C(C1CCCCC1)N1CCN(CC(F)(F)F)CC1

RP-LC retention time [s] | SMILES
729 | O=C(O)c1ccc2c(c1)CC(=O)N2Cc1cccc(F)c1
791 | CCCn1cc(CCNC(=O)c2ccc(F)c(F)c2)c2cccnc21
914 | COc1ccc(-c2noc(-c3nn(-c4ccc(F)c(F)c4)ccc3=O)n2)cc1
547 | Cc1[nH]c(=O)[nH]c(=O)c1CCC(=O)Nc1ccccc1C(N)=O
615 | O=C(Cn1ncc2c(c1=O)N(C1CC1)C(=O)CS2)NC1CCCC1
1200 | CC1CCN(C(=O)c2cccn2Cc2noc(-c3ccc(Cl)cc3)n2)CC1
651 | CCOc1ccccc1NC(=O)C1CCN(c2cncnc2N2CCOCC2)CC1
927 | CCOc1ccc(-c2nc(C3CC(=O)N(c4ccc(OC)cc4)C3)no2)cc1OCC (stereo not given)
886 | CS(=O)(=O)N1CCCC(C(=O)N(Cc2ccccc2)Cc2ccccc2)C1 (stereo not given)
806 | O=C(Nc1ccccc1F)N1CCC(n2cnc3ccc(Cl)cc3c2=O)CC1
649 | COc1ccc(Cl)cc1NC(=O)N1CCN(CCn2c(C(C)C)nc3cccnc32)CC1
1010 | Cc1cc(C)c(NC(=O)C2CCN(S(=O)(=O)c3c(C)nn(-c4ccccc4)c3C)CC2)c(C)c1
871 | COc1ccc(Cl)cc1N(C)C(=O)C1CCCN(c2ncnc3c2nc2n3CCCCC2)C1 (stereo not given)
1080 | O=C(NCc1cccs1)c1cccn1Cc1noc(-c2ccc(Cl)cc2)n1
626 | CCc1ccc2[nH]c3c(c(=O)c2c1)CN(CC(=O)NCc1ccc(F)cc1)CC3
816 | CCN(C(=O)C1CCCN1S(=O)(=O)c1cc2c(cc1Cl)NC(=O)CO2)c1cccc(C)c1 (stereo not given)
929 | CCOC(=O)c1nc(Nc2cc(Cl)ccc2C)c2ccccc2n1
847 | CSc1ccc(NC(=O)NC2CCN(c3ccc(F)cc3)C2=O)cc1 (stereo not given)
762 | COCC(=O)N(C1CCOCC1)C1CCN(S(=O)(=O)c2cccc(C)c2)CC1
874 | CCc1ccc(N2C(C)=NS(=O)(=O)c3cccnc32)cc1
616 | Cn1cc(-c2cc3n(n2)CCC(=O)N3CC(=O)NCCCN2CCCCC2)c2ccccc21
